Key:
[1] = log P determination by HPLC on reversed-phase columns (EEC Directive 79/831 Annex V.A8); assay type: physicochemical; settings: pH 2.7
Protocol: Determination by LC-MS in the acidic range takes place at a pH of 2.7 using 0.1% aqueous formic acid and acetonitrile (containing 0.1% formic acid) as eluents, with a linear gradient from 10% acetonitrile to 95% acetonitrile.
Calibration was carried out using unbranched alkan-2-ones (having 3 to 16 carbon atoms) with known log P values (the log P values are determined from the retention times by linear interpolation between two successive alkanones).

[2] = system: larvae of the mustard beetle (Phaedon cochleariae); assay: Phaedon test (PHAECO spray treatment); assay type: in vivo; settings: 168 h, 100 g/ha, after 7 days, read-out: activity in %
Protocol: (§1) Solvents: 78.0 parts by weight of acetone • • 1.5 parts by weight of dimethylformamide
(§2) Emulsifier: 0.5 part by weight of alkylaryl polyglycol ether
(§3) An appropriate preparation of active compound is prepared by mixing 1 part by weight of active compound with the stated amounts of solvent and emulsifier and diluting the concentrate with emulsifier-containing water to the desired concentration.
After 7 days, the activity in % is ascertained. Here, 100% means that all of the beetle larvae have been killed; 0% means that no beetle larvae have been killed.

[3] = system: caterpillars of the armyworm (Spodoptera frugiperda); assay: Spodoptera frugiperda test (SPODFR spray treatment); assay type: in vivo; settings: 168 h, 100 g/ha, after 7 days, read-out: activity in %
Protocol: as §1, §2, §3
Leaf discs of maize (Zea mays) are sprayed with a preparation of active compound at the desired concentration and, after drying, are populated with caterpillars of the armyworm (Spodoptera frugiperda).
After 7 days, the activity in % is ascertained. Here, 100% means that all of the caterpillars have been killed; 0% means that no caterpillar has been killed.

Compound	chromatographic logP [1]	pest or weed control at 100 g/ha [2] [%]	pest or weed control at 100 g/ha [3] [%]
CNC(=O)c1cc(C#N)cc(C)c1NC(=O)c1cc(Cn2cc(-c3cccc(Cl)c3)nn2)nn1-c1ncccc1Cl [Example 36]	2.86	100	100
CNC(=O)c1cc(C#N)cc(C)c1NC(=O)c1cc(Cn2ncc(-c3ccc(F)cc3)n2)nn1-c1ncccc1Cl [Example 40]	2.96	100	100
CNC(=O)c1cc(C#N)cc(C)c1NC(=O)c1cc(Cn2ncc(-c3ccc(Cl)cc3)n2)nn1-c1ncccc1Cl [Example 41]	3.34	100	100
CNC(=O)c1cc(C#N)cc(C)c1NC(=O)c1cc(Cn2ncc(-c3ccc(Cl)cc3Cl)n2)nn1-c1ncccc1Cl [Example 42]	3.81	100	100
CNC(=O)c1cc(C#N)cc(C)c1NC(=O)c1cc(Cn2ncc(-c3ccccc3Cl)n2)nn1-c1ncccc1Cl [Example 43]	3.21	100	100
CNC(=O)c1cc(C#N)cc(C)c1NC(=O)c1cc(Cn2ncc(-c3cccc(Cl)c3)n2)nn1-c1ncccc1Cl [Example 44]	3.23	100	100
Cc1cc(Cl)cc(C(=O)NC(C)(C)C)c1NC(=O)c1cc(Cn2cc(-c3ccc(F)cc3)nn2)nn1-c1ncccc1Cl [Example 45]	3.63	100	100
Cc1cc(C#N)cc(C(=O)NC(C)(C)C)c1NC(=O)c1cc(Cn2cc(-c3ccc(Cl)cc3Cl)nn2)nn1-c1ncccc1Cl [Example 55]	4.06	100	100
Cc1cc(C#N)cc(C(=O)NC(C)(C)C)c1NC(=O)c1cc(Cn2cc(-c3cccc(Cl)c3)nn2)nn1-c1ncccc1Cl [Example 57]	3.55	100	83
Cc1cc(C#N)cc(C(=O)NC(C)(C)C)c1NC(=O)c1cc(Cn2ncc(-c3ccc(F)cc3)n2)nn1-c1ncccc1Cl [Example 61]	3.72	100	100
Cc1cc(C#N)cc(C(=O)NC(C)(C)C)c1NC(=O)c1cc(Cn2ncc(-c3ccc(Cl)cc3)n2)nn1-c1ncccc1Cl [Example 62]	4.06	100	100
Cc1cc(C#N)cc(C(=O)NC(C)(C)C)c1NC(=O)c1cc(Cn2ncc(-c3ccc(Cl)cc3Cl)n2)nn1-c1ncccc1Cl [Example 63]	4.67	100	100
Cc1cc(C#N)cc(C(=O)NC(C)(C)C)c1NC(=O)c1cc(Cn2ncc(-c3ccccc3Cl)n2)nn1-c1ncccc1Cl [Example 64]	4.03	100	100
Cc1cc(C#N)cc(C(=O)NC(C)(C)C)c1NC(=O)c1cc(Cn2ncc(-c3cccc(Cl)c3)n2)nn1-c1ncccc1Cl [Example 65]	4.14	100	100
CNC(=O)c1cc(Cl)cc(C)c1NC(=O)c1cc(Cn2nnc3cc([N+](=O)[O-])ccc32)nn1-c1ncccc1Cl [Example 71]	2.64	100	100
CNC(=O)c1cc(Cl)cc(C)c1NC(=O)c1cc(Cn2nc3ccc(Cl)cc3n2)nn1-c1ncccc1Cl [Example 72]	3.28	100	100

Compound	chromatographic logP [1]	pest or weed control at 100 g/ha [2] [%]	pest or weed control at 100 g/ha [3] [%]
CNC(=O)c1cc(Cl)cc(C)c1NC(=O)c1cc(Cn2nc3ccc(C(F)(F)F)cc3n2)nn1-c1ncccc1Cl [Example 74]	3.48	100	100
CNC(=O)c1cc(Cl)cc(C)c1NC(=O)c1cc(Cn2nc3ccc([N+](=O)[O-])cc3n2)nn1-c1ncccc1Cl [Example 75]	2.95	100	100
CNC(=O)c1cc(Cl)cc(C)c1NC(=O)c1cc(Cn2nc3cc(Cl)c(Cl)cc3n2)nn1-c1ncccc1Cl [Example 77]	3.73	100	100
CNC(=O)c1cc(Cl)cc(C)c1NC(=O)c1cc(Cn2nc3ccc(F)cc3n2)nn1-c1ncccc1Cl [Example 79]	2.89	100	100
CNC(=O)c1cc(C#N)cc(C)c1NC(=O)c1cc(Cn2nc3cc(Cl)c(Cl)cc3n2)nn1-c1ncccc1Cl [Example 81]	3.35	100	100
CNC(=O)c1cc(Cl)cc(C)c1NC(=O)c1cc(Cn2nnc3cc(Br)ccc32)nn1-c1ncccc1Cl [Example 86]	2.94	100	100
CNC(=O)c1cc(Cl)cc(C)c1NC(=O)c1cc(Cn2nc3ccc(Br)cc3n2)nn1-c1ncccc1Cl [Example 87]	3.39	100	100
CNC(=O)c1cc(Cl)cc(C)c1NC(=O)c1cc(Cn2nnc3c(Cl)c(Cl)c(Cl)cc32)nn1-c1ncccc1Cl [Example 88]	3.75	100	100
CNC(=O)c1cc(Cl)cc(C)c1NC(=O)c1cc(Cn2nnc3c(Cl)cc(C(F)(F)F)cc32)nn1-c1ncccc1Cl [Example 89]	3.59	100	100
CNC(=O)c1cc(Cl)cc(C)c1NC(=O)c1cc(Cn2nnc3c(Br)cc(OC(F)(F)F)cc32)nn1-c1ncccc1Cl [Example 90]	3.74	100	100
CNC(=O)c1cc(Cl)cc(C)c1NC(=O)c1cc(Cn2nc3cc(OC(F)(F)F)cc(Br)c3n2)nn1-c1ncccc1Cl [Example 91]	4.17	100	100
CNC(=O)c1cc(C#N)cc(C)c1NC(=O)c1cc(Cn2nnc3c(Cl)c(Cl)c(Cl)c(Cl)c32)nn1-c1ncccc1Cl [Example 92]	3.79	100	100
CNC(=O)c1cc(C#N)cc(C)c1NC(=O)c1cc(Cn2nnc3cc(Br)ccc32)nn1-c1ncccc1Cl [Example 94]	2.66	100	100
CNC(=O)c1cc(C#N)cc(C)c1NC(=O)c1cc(Cn2nc3ccc(Br)cc3n2)nn1-c1ncccc1Cl [Example 95]	3.01	100	100
CNC(=O)c1cc(C#N)cc(C)c1NC(=O)c1cc(Cn2nnc3c(Cl)c(Cl)c(Cl)cc32)nn1-c1ncccc1Cl [Example 96]	3.42	100	100
